Experimental data as given in ChEMBL document CHEMBL5500417, “Discovery of Novel 2-Oxoacetamide Derivatives as B3GAT3 Inhibitors for the Treatment of Hepatocellular Carcinoma” (J Med Chem, 2024).

Legend:
[1] = molecular target: T1, Galactosylgalactosylxylosylprotein 3-beta-glucuronosyltransferase 3 (Homo sapiens, UniProt O94766); experiment: Binding affinity to CM5 sensor chip immobilized human B3GAT3 assessed as dissociation constant by SPR analysis
T1 sequence (O94766 whole entry): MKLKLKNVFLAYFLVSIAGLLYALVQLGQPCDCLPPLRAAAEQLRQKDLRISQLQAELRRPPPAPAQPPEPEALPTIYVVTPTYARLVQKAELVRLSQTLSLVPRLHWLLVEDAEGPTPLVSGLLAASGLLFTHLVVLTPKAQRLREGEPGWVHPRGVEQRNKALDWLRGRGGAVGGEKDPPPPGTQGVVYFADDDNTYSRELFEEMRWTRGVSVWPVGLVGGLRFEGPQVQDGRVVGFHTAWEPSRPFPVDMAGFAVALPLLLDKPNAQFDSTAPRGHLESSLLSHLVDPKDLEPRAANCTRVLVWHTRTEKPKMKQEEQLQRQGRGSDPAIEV

[2] = molecular target: T1, Galactosylgalactosylxylosylprotein 3-beta-glucuronosyltransferase 3; experiment: Binding affinity to biotinylated B3GAT3 (unknown origin) assessed as dissociation constant by biolayer interferometry (BLI) analysis
MHCC97H [3] = experiment: Cytotoxicity against (shRNA)-Ctrl transfected human MHCC97H cells assessed as cell viability measured after 72 hrs by CCK8 assay
MHCC97H [4] = experiment: Cytotoxicity against (shRNA)-mediated B3GAT3 KO human MHCC97H cells assessed as cell viability measured after 72 hrs by CCK8 assay
MHCC97H [5] = experiment: In vivo-antitumor activity against human MHCC97H cells xenografted BALB/c mouse model assessed as tumor growth inhibitor at 10 mg/kg, IG once daily measured after 31 days relative to control; details: po, 744 h, read-out: TGI
MHCC97H [6] = experiment: In vivo-antitumor activity against human MHCC97H cells xenografted BALB/c mouse model assessed as tumor growth inhibitor at 20 mg/kg, IG once daily measured after 31 days relative to control; details: po, 744 h, read-out: TGI
HCCLM3 [7] = experiment: In vivo-antitumor activity against human HCCLM3 cells xenografted BALB/c mouse model assessed as tumor growth inhibitor at 10 mg/kg, IG once daily measured after 31 days relative to control; details: HCCLM3, po, 744 h, read-out: TGI
[8] = Half life in BALB/c mouse at 1.2 mg/kg, iv measured upto 24 hrs by LC-MS/MS analysis; details: in vivo
[9] = Clearance in BALB/c mouse at 1.2 mg/kg, iv measured upto 24 hrs by LC-MS/MS analysis; details: in vivo
[10] = Half life in BALB/c mouse at 10 mg/kg, po measured upto 24 hrs by LC-MS/MS analysis; details: in vivo
[11] = Clearance in BALB/c mouse at 10 mg/kg, po measured upto 24 hrs by LC-MS/MS analysis; details: in vivo
MHCC97H [12] = experiment: In vivo-antitumor activity against human MHCC97H cells xenografted BALB/c mouse model assessed as tumor growth inhibitor at 5 mg/kg, IG once daily measured after 31 days relative to control; details: po, 744 h, read-out: TGI
HCCLM3 [13] = experiment: In vivo-antitumor activity against human HCCLM3 cells xenografted BALB/c mouse model assessed as reduction in tumor weight at 5 mg/kg, IG once daily measured after 31 days relative to control; details: HCCLM3, po, 744 h, read-out: INH
MHCC97H [14] = experiment: cells; details: Homo sapiens, 72 h
Description: Antitumor activity against human MHCC97H cells assessed as inhibition of cell growth measured after 72 hrs by CCK-8 assay

HCCLM3 [15] = experiment: cells; details: Homo sapiens, HCCLM3, 72 h
Description: Antitumor activity against human HCCLM3 cells assessed as inhibition of cell growth measured after 72 hrs by CCK-8 assay

THLE-2 = experiment: cells; details: Homo sapiens, THLE-2, 72 h
Description: Antitumor activity against human THLE-2 cells assessed as inhibition of cell proliferation measured after 72 hrs by CCK-8 assay

MHCC97H [16] = experiment: cells; details: Homo sapiens, 72 h; remark: listed apart in the source
Description: Antitumor activity against human MHCC97H cells assessed as inhibition of cell proliferation measured after 72 hrs by CCK-8 assay

HCCLM3 [17] = experiment: cells; details: Homo sapiens, HCCLM3, 72 h; remark: listed apart in the source
Description: Antitumor activity against human HCCLM3 cells assessed as inhibition of cell proliferation measured after 72 hrs by CCK-8 assay

Huh-7 = experiment: cells; details: Homo sapiens, Huh-7, 72 h
Description: Antitumor activity against human Huh-7 cells assessed as inhibition of cell proliferation measured after 72 hrs by CCK-8 assay

Hep 3B2 = experiment: cells; details: Homo sapiens, Hep3B, 72 h
Description: Antitumor activity against human Hep3B cells assessed as inhibition of cell proliferation measured after 72 hrs by CCK-8 assay

SNU-387 = experiment: cells; details: Homo sapiens, SNU-387, 72 h
Description: Antitumor activity against human SNU-387 cells assessed as inhibition of cell proliferation measured after 72 hrs by CCK-8 assay

PLC-PRF-5 = experiment: cells; details: Homo sapiens, PLC-PRF-5, 72 h
Description: Antitumor activity against human PLC-PRF-5 cells assessed as inhibition of cell proliferation measured after 72 hrs by CCK-8 assay

Hepa 1-6 = experiment: cells; details: Mus musculus, Hepa1-6, 72 h
Description: Antitumor activity against mouse Hepa1-6 cells assessed as inhibition of cell proliferation measured after 72 hrs by CCK-8 assay

NCI-H446 = experiment: cells; details: Homo sapiens, NCI-H446, 72 h
Description: Anti-tumor activity against human NCI-H446 cells assessed as inhibition of cell growth measured after 72 hrs by CCK-8 assay

NCI-H1650 = experiment: cells; details: Homo sapiens, NCI-H1650, 72 h
Description: Anti-tumor activity against human NCI-H1650 cells assessed as inhibition of cell growth measured after 72 hrs by CCK-8 assay

Calu-3 = experiment: cells; details: Homo sapiens, Calu-3, 72 h
Description: Anti-tumor activity against human Calu-3 cells assessed as inhibition of cell growth measured after 72 hrs by CCK-8 assay

PC-3 = experiment: cells; details: Homo sapiens, PC-3, 72 h
Description: Anti-tumor activity against human PC-3 cells assessed as inhibition of cell growth measured after 72 hrs by CCK-8 assay

SK-OV-3 = experiment: cells; details: Homo sapiens, SK-OV-3, 72 h
Description: Anti-tumor activity against human SK-OV-3 cells assessed as inhibition of cell growth measured after 72 hrs by CCK-8 assay

AGS = experiment: cells; details: Homo sapiens, 72 h
Description: Anti-tumor activity against human AGS cells assessed as inhibition of cell growth measured after 72 hrs by CCK-8 assay

MKN-45 = experiment: cells; details: Homo sapiens, MKN-45, 72 h
Description: Anti-tumor activity against human MKN-45 cells assessed as inhibition of cell growth measured after 72 hrs by CCK-8 assay

HT-29 = experiment: cells; details: Homo sapiens, HT-29, 72 h
Description: Anti-tumor activity against human HT-29 cells assessed as inhibition of cell growth measured after 72 hrs by CCK-8 assay

SW-620 = experiment: cells; details: Homo sapiens, SW-620, 72 h
Description: Anti-tumor activity against human SW620 cells assessed as inhibition of cell growth measured after 72 hrs by CCK-8 assay

MDA-MB-231 = experiment: cells; details: Homo sapiens, MDA-MB-231, 72 h
Description: Anti-tumor activity against human MDA-M8-231 cells assessed as inhibition of cell growth measured after 72 hrs by CCK-8 assay

HCC1937 = experiment: cells; details: Homo sapiens, HCC1937, 72 h
Description: Anti-tumor activity against human HCC1937 cells assessed as inhibition of cell growth measured after 72 hrs by CCK-8 assay

U-251 = experiment: cells; details: Homo sapiens, U-251, 72 h
Description: Anti-tumor activity against human U-251MG cells assessed as inhibition of cell growth measured after 72 hrs by CCK-8 assay

H4 = experiment: cells; details: Homo sapiens, H4, 72 h
Description: Anti-tumor activity against human H4 cells assessed as inhibition of cell growth measured after 72 hrs by CCK-8 assay

U-937 = experiment: cells; details: Homo sapiens, U-937, 72 h
Description: Anti-tumor activity against human U-937 cells assessed as inhibition of cell growth measured after 72 hrs by CCK-8 assay

THP-1 = experiment: cells; details: Homo sapiens, THP-1, 72 h
Description: Anti-tumor activity against human THP-1 cells assessed as inhibition of cell growth measured after 72 hrs by CCK-8 assay

K562 = experiment: cells; details: Homo sapiens, K562, 72 h
Description: Anti-tumor activity against human K562 cells assessed as inhibition of cell growth measured after 72 hrs by CCK-8 assay

MEG-01 = experiment: cells; details: Homo sapiens, MEG-01, 72 h
Description: Anti-tumor activity against human MEG-01 cells assessed as inhibition of cell growth measured after 72 hrs by CCK-8 assay

Jurkat = experiment: cells; details: Homo sapiens, 72 h
Description: Anti-tumor activity against human Jurkat cells assessed as inhibition of cell growth measured after 72 hrs by CCK-8 assay

in vivo [18] = details: BALB/c, mouse, iv, 1.2 mg/kg
Description: AUC in BALB/c mouse at 1.2 mg/kg, iv measured upto 24 hrs by LC-MS/MS analysis

in vivo [19] = details: BALB/c, mouse, iv, 1.2 mg/kg; remark: listed apart in the source
Description: Tmax in BALB/c mouse at 1.2 mg/kg, iv measured upto 24 hrs by LC-MS/MS analysis

in vivo [20] = details: BALB/c, mouse, iv, 1.2 mg/kg; remark: listed apart in the source
Description: Cmax in BALB/c mouse at 1.2 mg/kg, iv measured upto 24 hrs by LC-MS/MS analysis

in vivo [21] = details: BALB/c, mouse, po, 10 mg/kg
Description: AUC in BALB/c mouse at 10 mg/kg, po measured upto 24 hrs by LC-MS/MS analysis

in vivo [22] = details: BALB/c, mouse, po, 10 mg/kg; remark: listed apart in the source
Description: Tmax in BALB/c mouse at 10 mg/kg, po measured upto 24 hrs by LC-MS/MS analysis

in vivo [23] = details: BALB/c, mouse, po, 10 mg/kg; remark: listed apart in the source
Description: Cmax in BALB/c mouse at 10 mg/kg, po measured upto 24 hrs by LC-MS/MS analysis

in vivo [24] = details: BALB/c, mouse, po, 10 mg/kg; remark: listed apart in the source
Description: Oral bioavailability in BALB/c mouse at 10 mg/kg measured upto 24 hrs by LC-MS/MS analysis

in vitro [25] = details: human, liver microsomes
Description: Metabolic stability in human liver microsomes assessed as half life at 0.02 uM measured upto 60 mins by LC-MS/MS analysis

in vitro [26] = details: rat, liver microsomes
Description: Metabolic stability in rat liver microsomes assessed as half life at 0.02 uM measured upto 60 mins by LC-MS/MS analysis

in vitro [27] = details: mouse, liver microsomes
Description: Metabolic stability in mouse liver microsomes assessed as half life at 0.02 uM measured upto 60 mins by LC-MS/MS analysis

`COC(=O)c1ccc2[nH]cc(C(=O)C(=O)NC3CCN(c4ccc(C)cc4Cl)C3=O)c2c1` (stereo unspecified) showed a Kd [1] of 3.96 µM, a Kd [2] of 6.62 µM and an IC50 (MHCC97H [3]) of 6.92 µM. It also gave an IC50 (MHCC97H [4]) of 17 µM, an inhibition in vivo at 10 mg/kg (MHCC97H [5]) of 70% and an inhibition in vivo at 20 mg/kg (MHCC97H [6]) of 73.5%. For the same compound, the inhibition in vivo at 10 mg/kg (HCCLM3 [7]) was 59%, the half-life at 24 h [8] was 46.2 min and the clearance at 24 h [9] was 10 mL/min/kg. For the same compound, the half-life at 24 h [10] was 251 min, the CL/F at 24 h [11] was 20 mL/min/kg and the inhibition in vivo at 5 mg/kg (MHCC97H [12]) was 23.4%. For the same compound, the inhibition in vivo at 5 mg/kg (HCCLM3 [13]) was 58.8%, the IC50 (MHCC97H [14]) was 6.53 µM and the IC50 (HCCLM3 [15]) was 6.22 µM. It also gave an IC50 (THLE-2) of over 20 µM, an IC50 (MHCC97H [16]) of 18.9 µM and an IC50 (HCCLM3 [17]) of 18.4 µM. The IC50 (Huh-7) was 12.5 µM, the IC50 (Hep 3B2) was 12.2 µM and the IC50 (SNU-387) was 11.7 µM. The IC50 (PLC-PRF-5) was 6.52 µM, the IC50 (Hepa 1-6) was 6.22 µM and the IC50 (NCI-H446) was 11.6 µM. For the same compound, the IC50 (NCI-H1650) was 21.6 µM, the IC50 (Calu-3) was 41.6 µM and the IC50 (PC-3) was 13.7 µM. For the same compound, the IC50 (SK-OV-3) was 98.7 µM, the IC50 (AGS) was 5.33 µM and the IC50 (MKN-45) was 13.9 µM. The IC50 (HT-29) was 4.71 µM, the IC50 (SW-620) was 8.66 µM and the IC50 (MDA-MB-231) was 12.3 µM. For the same compound, the IC50 (HCC1937) was 47.9 µM, the IC50 (U-251) was 6.16 µM and the IC50 (H4) was 6.65 µM. For the same compound, the IC50 (U-937) was 5.99 µM, the IC50 (THP-1) was 23.9 µM and the IC50 (K562) was 8.25 µM. The IC50 (MEG-01) was 11.5 µM, the IC50 (Jurkat) was 6.69 µM and the AUC at 24 h (in vivo [18]) was 1850 ng·h/mL. The Tmax at 24 h (in vivo [19]) was 4.8 min, the Cmax at 24 h (in vivo [20]) was 3350 ng/mL and the AUC at 24 h (in vivo [21]) was 9520 ng·h/mL. The Tmax at 24 h (in vivo [22]) was 13.2 min, the Cmax at 24 h (in vivo [23]) was 9140 ng/mL and the bioavailability at 24 h (in vivo [24]) was 66.4%. The half-life at 1 h, 0.02 µM (in vitro [25]) was 17 min, the half-life at 1 h, 0.02 µM (in vitro [26]) was 25.9 min and the half-life at 1 h, 0.02 µM (in vitro [27]) was 37.9 min.
